Patent publication EP1137645B1, “ALPHA-METHYLBENZYL-CONTAINING THIOUREA INHIBITORS OF HERPES VIRUSES CONTAINING A […] GROUP” (Wyeth, priority 1998, dated 2000)
In brackets after ≈: the same amount, converted by molar mass.

Assays:
[1] = test system: HCMV recombinant mutant virus whose genome contains the prokaryotic beta-glucuronidase gene; assay: microbe, parasite or virus in culture; type: cell-based, human cytomegalovirus; settings: Human betaherpesvirus 5, Fibroblast, read-out: IC50 ug/ml HCMV, HCMV, human foreskin fibroblasts
In short: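 Antiviral IC50 estimated from reduced reporter activity across compound amounts: lysates prepared 96 h after infection were tested with p-nitrophenyl- or methylumbelliferyl-glucuronide. Cells were human foreskin fibroblasts, infected alongside inhibitor with HCMV (e.g. RV145) expressing viral promoter-driven beta-glucuronidase.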

HSV- I = assay: HSV antiviral (ELISA) assay; type: cell-based; settings: HSV- I, Vero cells, ELISA; read-out: IC50 (ug/ml) HSV
In short: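 IC50 from fluorescence versus untreated control in a cell ELISA: anti-glycoprotein D antibody, β-galactosidase-conjugated secondary, 4-methyl umbelliferone read at 365/450 nm. Vero cells (2% FBS DMEM) received compound 30 min pre-infection with HSV-1 at MOI 0.006, fixed ~24 h post-infection.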

VZV strain Ellen = assay: VZV antiviral (ELISA) assay; type: cell-based; settings: Human alphaherpesvirus 3, HFF; for inhibition at 10 µg/mL: read-out: % inhibition 10 ug/ml VZV; for IC50: read-out: IC50 (ug/ml) VZV
In short: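 HFF cells infected with VZV Ellen at multiplicity below 0.1 overnight, then mixed infected/uninfected cells seeded with compound in DMEM/2% FBS and incubated three days at 37°C, 5% CO2.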

Cc1ccc(NC(=S)Nc2ccc(NC(=O)c3c(F)cccc3F)cc2)cc1Cl [Example 235, N-{4-[3-(3-Chloro-4-methyl-phenyl)-thioureido]-phenyl}-2,6-difluoro-benzamide]
IC50 [1]: > 10 µg/mL
IC50 (HSV- I): 0.2 µg/mL (≈ 0.463 µM)
inhibition at 10 µg/mL (VZV strain Ellen): 50%
IC50 (VZV strain Ellen): > 10 µg/mL

CN(c1ccc(NC(=S)Nc2ccc(NC(=O)c3ccccc3F)cc2)cc1Cl)C1CCCCC1 [Example 238, N-(4-{3-[3-Chloro-4-(cyclohexyl-methyl-amino)-phenyl]-thioureido}-phenyl)-2-fluoro-benzamide]
IC50 [1]: > 10 µg/mL
IC50 (HSV- I): > 10 µg/mL
inhibition at 10 µg/mL (VZV strain Ellen): 38%
IC50 (VZV strain Ellen): > 10 µg/mL

O=C(Nc1ccc(NC(=S)Nc2ccc(Cl)c(C(F)(F)F)c2)cc1)c1ccccc1F [Example 244, N-{4-[3-(4-Chloro-3-trifluoromethyl-phenyl)-thioureido]-phenyl}-2-fluoro-benzamide]
IC50 [1]: > 10 µg/mL
IC50 (HSV- I): > 10 µg/mL
inhibition at 10 µg/mL (VZV strain Ellen): 18%
IC50 (VZV strain Ellen): > 10 µg/mL

Cc1ccccc1C(=O)Nc1ccc(NC(=S)Nc2ccc(N(C)C3CCCCC3)c(Cl)c2)cc1 [Example 247, N-(4-{3-[3-Chloro-4-(cyclohexyl-methyl-amino)-phenyl]-thioureido}-phenyl)-2-methyl-benzamide]
IC50 [1]: > 10 µg/mL
IC50 (HSV- I): > 10 µg/mL
inhibition at 10 µg/mL (VZV strain Ellen): 74%
IC50 (VZV strain Ellen): 5 µg/mL (≈ 9.86 µM)

CN(c1ccc(NC(=S)Nc2ccc(NC(=O)c3c(F)cccc3F)cc2)cc1Cl)C1CCCCC1 [Example 248, N-(4-{3-[3-Chloro-4-(cyclohexyl-methyl-amino)-phenyl]-thioureido}-phenyl)-2,6-difluoro-benzamide]
IC50 [1]: 2 µg/mL (≈ 3.78 µM)
IC50 (HSV- I): > 10 µg/mL
inhibition at 10 µg/mL (VZV strain Ellen): 96%
IC50 (VZV strain Ellen): 2 µg/mL (≈ 3.78 µM)

COc1cccc(C(=O)Nc2ccc(NC(=S)Nc3ccc(N(C)C4CCCCC4)c(Cl)c3)cc2)c1 [Example 250, N-(4-{3-[3-Chloro-4-(cyclohexyl-methyl-amino)-phenyl]-thioureido}-phenyl)-3-methoxy-benzamide]
IC50 [1]: > 10 µg/mL
IC50 (HSV- I): > 10 µg/mL
inhibition at 10 µg/mL (VZV strain Ellen): 42%
IC50 (VZV strain Ellen): > 10 µg/mL

COc1cc(OC)c(NC(=S)Nc2ccc(NC(=O)c3cccc(OC(C)=O)c3)cc2)cc1Cl [Example 253, Acetic acid 3-{4-[3-(5-chloro-2,4-dimethoxy-phenyl)-thioureido]-phenyl-carbamoyl}-phenyl ester]
IC50 [1]: 8 µg/mL (≈ 16 µM)
IC50 (HSV- I): 1.2 µg/mL (≈ 2.4 µM)
inhibition at 10 µg/mL (VZV strain Ellen): 100%
IC50 (VZV strain Ellen): 6 µg/mL (≈ 12 µM)

COc1cc(OC)c(NC(=S)Nc2ccc(NC(=O)c3cccc(O)c3)cc2)cc1Cl [Example 254, N-{4-[3-(5-Chloro-2,4-dimethoxy-phenyl)-thioureido]-phenyl}-3-hydroxy-benzamide]
IC50 [1]: 4 µg/mL (≈ 8.73 µM)
IC50 (HSV- I): 0.9 µg/mL (≈ 1.97 µM)
inhibition at 10 µg/mL (VZV strain Ellen): 110%
IC50 (VZV strain Ellen): 4 µg/mL (≈ 8.73 µM)

COc1cc(OC)c(NC(=S)Nc2ccc(NC(=O)c3cccc4c3OCO4)cc2)cc1Cl [Example 255, Benzo[1,3]dioxole-4-carboxylic acid {4-[3-(5-chloro-2,4-dimethoxy-phenyl)-thioureido]-phenyl}-amide]
IC50 [1]: > 10 µg/mL
IC50 (HSV- I): 1.2 µg/mL (≈ 2.47 µM)
inhibition at 10 µg/mL (VZV strain Ellen): 0%
IC50 (VZV strain Ellen): > 10 µg/mL

COc1cc(OC)c(NC(=S)Nc2ccc(NC(=O)c3cccc(OC(F)(F)F)c3)cc2)cc1Cl [Example 256, N-{4-[3-(5-Chloro-2,4-dimethoxy-phenyl)-thioureido]-phenyl}-3-trifluoro-methoxy-benzamide]
IC50 [1]: 9 µg/mL (≈ 17.1 µM)
IC50 (HSV- I): 2 µg/mL (≈ 3.8 µM)
inhibition at 10 µg/mL (VZV strain Ellen): 15%
IC50 (VZV strain Ellen): > 10 µg/mL

COc1cc(OC)c(NC(=S)Nc2ccc(NC(=O)c3cccc(OCCN(C)C)c3)cc2)cc1Cl [Example 257, N-{4-[3-(5-Chloro-2,4-dimethoxy-phenyl)-thioureido]-phenyl}-3-(2-dimethylamino-ethoxy)-benzamide]
IC50 [1]: 7 µg/mL (≈ 13.2 µM)
IC50 (HSV- I): 2.5 µg/mL (≈ 4.73 µM)
inhibition at 10 µg/mL (VZV strain Ellen): 105%
IC50 (VZV strain Ellen): 2.5 µg/mL (≈ 4.73 µM)

COc1cc(OC)c(NC(=S)Nc2ccc(NC(=O)c3cccc(OCCN4CCOCC4)c3)cc2)cc1Cl [Example 258, N-{4-[3-(5-Chloro-2,4-dimethoxy-phenyl)-thioureido]-phenyl}-3-(2-morpholin-4-yl-ethoxy)-benzamide]
IC50 [1]: 5 µg/mL (≈ 8.76 µM)
IC50 (HSV- I): 1.5 µg/mL (≈ 2.63 µM)
inhibition at 10 µg/mL (VZV strain Ellen): 92%
IC50 (VZV strain Ellen): 1.5 µg/mL (≈ 2.63 µM)

COc1cc(OC)c(NC(=S)Nc2ccc(NC(=O)c3ccccc3F)c(Cl)c2)cc1Cl [Example 278, N-{2-Chloro-4-[3-(5-chloro-2,4-dimethoxy-phenyl)-thioureido]-phenyl}-2-fluoro-benzamide]
IC50 [1]: > 10 µg/mL
IC50 (HSV- I): > 10 µg/mL
inhibition at 10 µg/mL (VZV strain Ellen): 15%
IC50 (VZV strain Ellen): > 10 µg/mL

COc1cc(OC)c(NC(=S)Nc2ccc(NC(=O)c3ccccc3F)c(C(=O)c3ccccc3)c2)cc1Cl [Example 293, N-{2-Benzoyl-4-[3-(5-chloro-2,4-dimethoxy-phenyl)-thioureido]-phenyl}-2-fluoro-benzamide]
IC50 [1]: > 10 µg/mL
IC50 (HSV- I): > 50 µg/mL
inhibition at 10 µg/mL (VZV strain Ellen): 2%
IC50 (VZV strain Ellen): > 10 µg/mL

CN1CCC(N(C)c2ccc(NC(=S)Nc3ccc(NC(=O)c4ccccc4F)cc3)cc2Cl)C1 (centres unmarked) [Example 332, N-[4-(3-{3-Chloro-4-[methyl-(1-methyl-pyrrolidin-3-yl)-amino]-phenyl}-thioureido)-phenyl]-2-fluoro-benzamide]
IC50 [1]: 0.9 µg/mL (≈ 1.76 µM)
IC50 (HSV- I): 1 µg/mL (≈ 1.95 µM)
inhibition at 10 µg/mL (VZV strain Ellen): 90%
IC50 (VZV strain Ellen): 8 µg/mL (≈ 15.6 µM)

COc1cc(C)c(Cl)cc1NC(=S)Nc1ccc(NC(=O)c2c(F)cccc2F)cc1 [Example 333, N-{4-[3-(5-Chloro-2-methoxy-4-methyl-phenyl)-thioureido]-phenyl}-2,6-difluoro-benzamide]
IC50 [1]: 2.5 µg/mL (≈ 5.41 µM)
IC50 (HSV- I): 0.04 µg/mL (≈ 0.0866 µM)
inhibition at 10 µg/mL (VZV strain Ellen): 92%
IC50 (VZV strain Ellen): 4.5 µg/mL (≈ 9.74 µM)

CN1CCC(N(C)c2ccc(NC(=S)Nc3ccc(NC(=O)c4c(F)cccc4F)cc3)cc2Cl)CC1 [Example 340, N-[4-(3-{3-Chloro-4-[methyl-(1-methyl-piperidin-4-yl)-amino]-phenyl}-thioureido)-phenyl]-2,6-difluoro-benzamide]
IC50 [1]: 0.25 µg/mL (≈ 0.459 µM)
IC50 (HSV- I): 3 µg/mL (≈ 5.51 µM)
inhibition at 10 µg/mL (VZV strain Ellen): 99%
IC50 (VZV strain Ellen): 4 µg/mL (≈ 7.35 µM)

CSc1ccc(NC(=S)Nc2ccc(NC(=O)c3ccccc3C)cc2)cc1Cl [Example 342, N-{4-[3-(3-Chloro-4-methylsulfanyl-phenyl)-thioureido]-phenyl}-2-methyl-benzamide]
IC50 [1]: 1.4 µg/mL (≈ 3.17 µM)
IC50 (HSV- I): 0.2 µg/mL (≈ 0.452 µM)
inhibition at 10 µg/mL (VZV strain Ellen): 62%
IC50 (VZV strain Ellen): > 10 µg/mL

Cc1ccccc1C(=O)Nc1ccc(NC(=S)Nc2ccc(N(C)C)c(Cl)c2)cc1 [Example 346, N-{4-[3-(3-Chloro-4-dimethylamino-phenyl)-thioureido]-phenyl}-2-methyl-benzamide]
IC50 [1]: 2 µg/mL (≈ 4.56 µM)
IC50 (HSV- I): 6 µg/mL (≈ 13.7 µM)
inhibition at 10 µg/mL (VZV strain Ellen): 62%
IC50 (VZV strain Ellen): > 10 µg/mL

CN(C)c1ccc(NC(=S)Nc2ccc(NC(=O)c3c(F)cccc3F)cc2)cc1Cl [Example 348, N-{4-[3-(3-Chloro-4-dimethylamino-phenyl)-thioureido]-phenyl}-2,6-difluoro-benzamide]
IC50 [1]: 0.8 µg/mL (≈ 1.74 µM)
IC50 (HSV- I): 4 µg/mL (≈ 8.68 µM)
inhibition at 10 µg/mL (VZV strain Ellen): 95%
IC50 (VZV strain Ellen): 8 µg/mL (≈ 17.4 µM)

CN1CCC(N(C)c2ccc(NC(=S)Nc3ccc(NC(=O)c4c(F)cccc4F)cc3)cc2Cl)C1 (centres unmarked) [Example 349, N-[4-(3-{3-Chloro-4-[methyl-(1-methyl-pyrrolidin-3-yl)-amino]-phenyl}-thioureido)-phenyl]-2,6-difluoro-benzamide]
IC50 [1]: 1.2 µg/mL (≈ 2.26 µM)
IC50 (HSV- I): 5 µg/mL (≈ 9.43 µM)
inhibition at 10 µg/mL (VZV strain Ellen): 110%
IC50 (VZV strain Ellen): 4 µg/mL (≈ 7.55 µM)

COc1cc(OC)c(NC(=S)Nc2ccc(NC(=O)c3ccccc3F)cc2Cl)cc1Cl [Example 355, N-{3-Chloro-4-[3-(5-chloro-2,4-dimethoxy-phenyl)-thioureido]-phenyl}-2-fluoro-benzamide]
IC50 [1]: > 10 µg/mL
IC50 (HSV- I): 0.035 µg/mL (≈ 0.0708 µM)
inhibition at 10 µg/mL (VZV strain Ellen): 40%
IC50 (VZV strain Ellen): > 10 µg/mL

O=C(Nc1ccc(NC(=S)Nc2ccc(SC3CCCCC3)c(Cl)c2)cc1)c1ccccc1F [Example 357, N-{4-[3-(3-Chloro-4-cyclohexylsulfanyl-phenyl)-thioureido]-phenyl}-2-fluoro-benzamide]
IC50 [1]: 9 µg/mL (≈ 17.5 µM)
IC50 (HSV- I): > 10 µg/mL
inhibition at 10 µg/mL (VZV strain Ellen): 44%
IC50 (VZV strain Ellen): 40 µg/mL (≈ 77.8 µM)

CN(C)CC(=O)Nc1ccc(NC(=S)Nc2ccc(NC(=O)c3ccccc3F)cc2)cc1Cl [Example 362, N-(4-{3-[3-Chloro-4-(2-dimethylamino-acetylamino)-phenyl]-thioureido}-phenyl)-2-fluoro-benzamide]
IC50 [1]: > 10 µg/mL
IC50 (HSV- I): > 10 µg/mL
inhibition at 10 µg/mL (VZV strain Ellen): 8%
IC50 (VZV strain Ellen): > 10 µg/mL

O=C(CN1CCCCC1)Nc1ccc(NC(=S)Nc2ccc(NC(=O)c3ccccc3F)cc2)cc1Cl [Example 364, N-(4-{3-[3-Chloro-4-(2-piperidin-1-yl-acetylamino)-phenyl]-thioureido}-phenyl)-2-fluoro-benzamide]
IC50 [1]: > 10 µg/mL
IC50 (HSV- I): > 10 µg/mL
inhibition at 10 µg/mL (VZV strain Ellen): 73%
IC50 (VZV strain Ellen): > 15 µg/mL

O=C(CN1CCOCC1)Nc1ccc(NC(=S)Nc2ccc(NC(=O)c3ccccc3F)cc2)cc1Cl [Example 367, N-(4-{3-[3-Chloro-4-(2-morpholin-4-yl-acetylamino)-phenyl]-thioureido}-phenyl)-2-fluoro-benzamide]
IC50 [1]: > 10 µg/mL
IC50 (HSV- I): > 10 µg/mL
inhibition at 10 µg/mL (VZV strain Ellen): 20%
IC50 (VZV strain Ellen): > 10 µg/mL
